Data reported in patent publication US20100305098A1, “METHODS OF USE” (priority 2007, published 2010).

Key:
[1] = target: T1, TP (Homo sapiens, UniProt P21731); assay: FLIPR functional screen; assay type: cell-based; conditions: antagonist mode
T1 construct: Millipore

[2] = target: T2, S1P3 (Homo sapiens, UniProt Q99500); assay: FLIPR functional screen; assay type: cell-based; conditions: antagonist mode
T2 construct: Millipore

[3] = target: T3, ADRB2 (Homo sapiens, UniProt P07550); assay: FLIPR functional screen; assay type: cell-based; conditions: antagonist mode
T3 construct: purchased Millipore (outsourced screen)
T3 sequence (P07550 whole entry): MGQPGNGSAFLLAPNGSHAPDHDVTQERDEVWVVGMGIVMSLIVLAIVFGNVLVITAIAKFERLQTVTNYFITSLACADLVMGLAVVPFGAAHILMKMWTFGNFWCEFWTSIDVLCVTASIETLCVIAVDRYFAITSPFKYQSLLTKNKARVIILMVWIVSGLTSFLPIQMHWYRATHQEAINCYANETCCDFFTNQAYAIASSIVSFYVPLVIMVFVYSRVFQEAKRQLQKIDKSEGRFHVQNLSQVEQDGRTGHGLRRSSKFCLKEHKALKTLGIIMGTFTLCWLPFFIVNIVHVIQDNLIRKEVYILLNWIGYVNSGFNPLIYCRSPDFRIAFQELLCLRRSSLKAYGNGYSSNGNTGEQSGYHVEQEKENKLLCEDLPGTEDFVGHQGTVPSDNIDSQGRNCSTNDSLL

[4] = target: T4, 5-HT2A (Homo sapiens, UniProt P28223); assay: FLIPR functional screen; assay type: cell-based; conditions: antagonist mode
T4 construct: purchased Millipore (outsourced screen)

[5] = target: T5, BB1 (Homo sapiens, UniProt P28336); assay: FLIPR functional screen; assay type: cell-based; conditions: antagonist mode
T5 construct: Millipore

[6] = target: T6, Prostanoid DP (Homo sapiens, UniProt Q13258); assay: Competitive radioligand binding (MDS Pharma)
T6 construct: purchased MDS Pharma (outsourced assay)
T6 sequence (Q13258 whole entry): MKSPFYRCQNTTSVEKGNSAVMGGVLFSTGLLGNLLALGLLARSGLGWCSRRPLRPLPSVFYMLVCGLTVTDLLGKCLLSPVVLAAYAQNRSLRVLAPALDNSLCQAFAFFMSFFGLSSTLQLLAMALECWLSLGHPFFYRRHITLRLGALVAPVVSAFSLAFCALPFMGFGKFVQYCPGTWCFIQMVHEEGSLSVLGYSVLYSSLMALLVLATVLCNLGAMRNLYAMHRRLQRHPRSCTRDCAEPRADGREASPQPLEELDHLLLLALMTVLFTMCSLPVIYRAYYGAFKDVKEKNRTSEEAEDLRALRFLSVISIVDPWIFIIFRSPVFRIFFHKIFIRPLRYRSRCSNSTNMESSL

[7] = target: T7, EP2 (Homo sapiens, UniProt P43116); assay: FLIPR functional screen; assay type: cell-based; conditions: antagonist mode
T7 construct: Millipore

[8] = target: T8, RDKR2 (Homo sapiens, UniProt P30411); assay: FLIPR functional screen; assay type: cell-based; conditions: antagonist mode
T8 construct: Millipore

[9] = target: T9, PTH1 (Homo sapiens, UniProt Q03431); assay: FLIPR functional screen; assay type: cell-based; conditions: antagonist mode
T9 construct: Millipore
T9 sequence (Q03431 27-593): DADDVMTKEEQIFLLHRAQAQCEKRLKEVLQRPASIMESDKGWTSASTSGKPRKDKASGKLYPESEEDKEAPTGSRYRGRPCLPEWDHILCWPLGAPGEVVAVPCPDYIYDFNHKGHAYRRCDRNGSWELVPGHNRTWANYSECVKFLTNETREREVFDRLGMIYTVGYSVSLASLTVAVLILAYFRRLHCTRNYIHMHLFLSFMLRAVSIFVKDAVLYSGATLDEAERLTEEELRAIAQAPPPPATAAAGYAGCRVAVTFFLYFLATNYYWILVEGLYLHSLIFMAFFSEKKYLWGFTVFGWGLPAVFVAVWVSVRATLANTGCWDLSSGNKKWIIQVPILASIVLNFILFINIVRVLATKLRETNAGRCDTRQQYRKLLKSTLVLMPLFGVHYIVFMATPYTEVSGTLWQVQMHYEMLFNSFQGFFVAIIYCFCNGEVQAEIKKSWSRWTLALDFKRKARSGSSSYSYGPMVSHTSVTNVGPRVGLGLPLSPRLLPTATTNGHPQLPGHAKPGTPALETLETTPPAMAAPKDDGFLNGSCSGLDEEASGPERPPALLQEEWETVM

[10] = target: T10, D1 (Homo sapiens, UniProt P21728); assay: FLIPR functional screen; assay type: cell-based; conditions: antagonist mode
T10 construct: Millipore

[11] = target: T11, PAR4 (Homo sapiens, UniProt Q96RI0); assay: FLIPR functional screen; assay type: cell-based; conditions: antagonist mode
T11 construct: Millipore

[12] = target: T12, SST4 (Homo sapiens, UniProt P31391); assay: FLIPR functional screen; assay type: cell-based; conditions: antagonist mode
T12 construct: Millipore

[13] = target: T13, MOTILIN (Homo sapiens, UniProt O43193); assay: FLIPR functional screen; assay type: cell-based; conditions: antagonist mode
T13 construct: Millipore

[14] = target: T14, PAR2 (Homo sapiens, UniProt P55085); assay: FLIPR functional screen; assay type: cell-based; conditions: antagonist mode
T14 construct: Millipore
T14 sequence (P55085 26-397): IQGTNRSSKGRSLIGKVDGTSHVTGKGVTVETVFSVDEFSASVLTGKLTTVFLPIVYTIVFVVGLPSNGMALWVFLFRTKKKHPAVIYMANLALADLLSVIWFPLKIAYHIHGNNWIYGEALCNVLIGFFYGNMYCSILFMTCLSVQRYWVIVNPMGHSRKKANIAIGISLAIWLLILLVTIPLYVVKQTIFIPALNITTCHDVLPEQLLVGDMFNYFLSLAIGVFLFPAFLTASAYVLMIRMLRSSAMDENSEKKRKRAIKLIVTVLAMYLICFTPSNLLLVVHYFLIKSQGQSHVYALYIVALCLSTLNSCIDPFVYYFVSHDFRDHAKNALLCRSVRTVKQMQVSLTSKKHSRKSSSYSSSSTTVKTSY

[15] = target: T15, CAS (Homo sapiens, UniProt P41180); assay: FLIPR functional screen; assay type: cell-based; conditions: antagonist mode
T15 construct: Millipore

[16] = target: T16, H2 (Homo sapiens, UniProt P25021); assay: FLIPR functional screen; assay type: cell-based; conditions: antagonist mode
T16 construct: Millipore
T16 sequence (P25021 whole entry): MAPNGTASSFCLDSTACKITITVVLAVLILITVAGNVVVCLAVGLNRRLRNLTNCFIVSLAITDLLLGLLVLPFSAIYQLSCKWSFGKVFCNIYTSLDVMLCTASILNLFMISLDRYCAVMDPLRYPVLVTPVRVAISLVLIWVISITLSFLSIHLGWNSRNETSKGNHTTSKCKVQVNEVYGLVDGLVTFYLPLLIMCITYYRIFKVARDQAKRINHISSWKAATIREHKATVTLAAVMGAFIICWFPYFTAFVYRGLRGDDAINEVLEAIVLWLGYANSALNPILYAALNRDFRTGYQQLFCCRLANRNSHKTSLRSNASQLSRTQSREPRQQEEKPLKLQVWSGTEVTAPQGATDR

[17] = target: T17, OT (Homo sapiens, UniProt P30559); assay: FLIPR functional screen; assay type: cell-based; conditions: antagonist mode
T17 construct: Millipore
T17 sequence (P30559 whole entry): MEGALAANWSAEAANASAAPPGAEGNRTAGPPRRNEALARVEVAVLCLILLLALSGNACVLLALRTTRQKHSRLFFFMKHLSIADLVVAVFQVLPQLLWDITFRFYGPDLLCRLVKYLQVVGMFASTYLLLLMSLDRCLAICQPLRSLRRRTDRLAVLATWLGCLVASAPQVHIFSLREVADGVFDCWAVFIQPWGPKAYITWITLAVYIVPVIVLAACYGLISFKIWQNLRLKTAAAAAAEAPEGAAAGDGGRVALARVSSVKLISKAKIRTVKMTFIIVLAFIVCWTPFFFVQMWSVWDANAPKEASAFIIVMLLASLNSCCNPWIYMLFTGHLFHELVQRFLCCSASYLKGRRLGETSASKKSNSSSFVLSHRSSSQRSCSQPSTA

[18] = target: T18, CCR8 (Homo sapiens, UniProt P51685); assay: FLIPR functional screen; assay type: cell-based; conditions: antagonist mode
T18 construct: Millipore

[19] = target: T19, CCR2B (Homo sapiens, UniProt P41597); assay: FLIPR functional screen; assay type: cell-based; conditions: antagonist mode
T19 construct: Millipore
T19 sequence (P41597 1-360 isoform P41597-2): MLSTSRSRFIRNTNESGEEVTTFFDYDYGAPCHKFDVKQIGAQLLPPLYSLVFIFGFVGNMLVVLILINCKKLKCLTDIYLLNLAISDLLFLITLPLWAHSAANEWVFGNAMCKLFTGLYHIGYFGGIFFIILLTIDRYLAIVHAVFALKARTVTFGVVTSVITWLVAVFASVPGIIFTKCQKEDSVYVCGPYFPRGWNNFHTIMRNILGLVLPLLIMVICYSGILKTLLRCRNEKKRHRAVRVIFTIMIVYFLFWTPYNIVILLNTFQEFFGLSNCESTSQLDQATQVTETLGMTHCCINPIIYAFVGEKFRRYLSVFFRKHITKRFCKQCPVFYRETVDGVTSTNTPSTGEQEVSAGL

[20] = target: T20, LPA3 (Homo sapiens, UniProt Q9UBY5); assay: FLIPR functional screen; assay type: cell-based; conditions: antagonist mode
T20 construct: Millipore

[21] = target: T21, CCR6 (Homo sapiens, UniProt P51684); assay: FLIPR functional screen; assay type: cell-based; conditions: antagonist mode
T21 construct: Millipore
T21 sequence (P51684 whole entry): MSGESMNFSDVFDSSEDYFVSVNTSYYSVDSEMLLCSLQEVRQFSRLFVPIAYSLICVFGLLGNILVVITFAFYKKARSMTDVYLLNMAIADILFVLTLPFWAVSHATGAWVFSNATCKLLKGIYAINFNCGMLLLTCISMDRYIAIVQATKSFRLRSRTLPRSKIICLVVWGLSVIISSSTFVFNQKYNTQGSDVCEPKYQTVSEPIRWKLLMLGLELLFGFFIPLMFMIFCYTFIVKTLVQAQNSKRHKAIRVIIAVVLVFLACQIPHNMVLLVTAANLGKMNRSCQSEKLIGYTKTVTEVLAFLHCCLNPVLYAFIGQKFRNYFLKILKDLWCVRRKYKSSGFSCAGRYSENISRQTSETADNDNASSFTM

[22] = target: T22, BB3 (Homo sapiens, UniProt P32247); assay: FLIPR functional screen; assay type: cell-based; conditions: antagonist mode
T22 construct: Millipore

[23] = target: T23, DP (Homo sapiens, UniProt Q13258); assay: FLIPR functional screen; assay type: cell-based; conditions: antagonist mode
T23 construct: Millipore
T23 sequence (Q13258 whole entry): as the sequence (Q13258 whole entry) above

[24] = target: T24, FPR1 (Homo sapiens, UniProt P21462); assay: FLIPR functional screen; assay type: cell-based; conditions: antagonist mode
T24 construct: Millipore
T24 sequence (P21462 whole entry, species assumed): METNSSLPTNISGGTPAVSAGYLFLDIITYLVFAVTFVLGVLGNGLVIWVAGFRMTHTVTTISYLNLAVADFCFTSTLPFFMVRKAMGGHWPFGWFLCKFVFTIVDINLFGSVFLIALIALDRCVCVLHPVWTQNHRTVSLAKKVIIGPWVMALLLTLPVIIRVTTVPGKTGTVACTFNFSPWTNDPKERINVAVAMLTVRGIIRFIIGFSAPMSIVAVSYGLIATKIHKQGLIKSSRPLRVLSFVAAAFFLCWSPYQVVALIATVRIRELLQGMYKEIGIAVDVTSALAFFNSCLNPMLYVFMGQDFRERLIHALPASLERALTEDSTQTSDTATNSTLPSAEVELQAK

[25] = target: T25, GPR41 (Homo sapiens, UniProt O14843); assay: FLIPR functional screen; assay type: cell-based; conditions: antagonist mode
T25 construct: Millipore

[26] = target: T26, ADRB3 (Homo sapiens, UniProt P13945); assay: FLIPR functional screen; assay type: cell-based; conditions: antagonist mode
T26 construct: purchased Millipore (outsourced screen)

[27] = target: T27, MC2 (Homo sapiens, UniProt Q01718); assay: FLIPR functional screen; assay type: cell-based; conditions: antagonist mode
T27 construct: Millipore
T27 sequence (Q01718 whole entry): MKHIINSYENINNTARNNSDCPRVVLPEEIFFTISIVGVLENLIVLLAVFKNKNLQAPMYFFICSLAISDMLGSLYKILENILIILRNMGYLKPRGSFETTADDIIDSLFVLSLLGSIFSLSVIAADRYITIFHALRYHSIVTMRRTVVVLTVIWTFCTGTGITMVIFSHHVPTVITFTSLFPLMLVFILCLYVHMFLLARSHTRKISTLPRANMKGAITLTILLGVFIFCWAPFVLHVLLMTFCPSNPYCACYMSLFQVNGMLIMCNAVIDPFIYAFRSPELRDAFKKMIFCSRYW
T27 sequence (Q8TCY5 whole entry partner): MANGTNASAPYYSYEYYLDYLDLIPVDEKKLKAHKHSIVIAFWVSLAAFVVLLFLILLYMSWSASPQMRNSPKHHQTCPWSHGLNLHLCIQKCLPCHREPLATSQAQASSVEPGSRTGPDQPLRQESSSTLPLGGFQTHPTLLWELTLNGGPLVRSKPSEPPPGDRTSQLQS

[28] = target: T28, GLP1 (Homo sapiens, UniProt P43220); assay: FLIPR functional screen; assay type: cell-based; conditions: antagonist mode
T28 construct: Millipore

[29] = target: T29, OX2 (Homo sapiens, UniProt O43614); assay: FLIPR functional screen; assay type: cell-based; conditions: antagonist mode
T29 construct: Millipore

[30] = target: T30, NK1 (Homo sapiens, UniProt P25103); assay: FLIPR functional screen; assay type: cell-based; conditions: antagonist mode
T30 construct: Millipore

[31] = target: T31, 5-HT2B (Homo sapiens, UniProt P41595); assay: FLIPR functional screen; assay type: cell-based; conditions: antagonist mode
T31 construct: purchased Millipore (outsourced screen)

[32] = target: T32, AT1 (Homo sapiens, UniProt P30556); assay: FLIPR functional screen; assay type: cell-based; conditions: antagonist mode
T32 construct: purchased Millipore (outsourced screen)

[33] = target: T33, NTR1 (Homo sapiens, UniProt P30989); assay: FLIPR functional screen; assay type: cell-based; conditions: antagonist mode
T33 construct: Millipore

[34] = target: T34, SST5 (Homo sapiens, UniProt P35346); assay: FLIPR functional screen; assay type: cell-based; conditions: antagonist mode
T34 construct: Millipore

[35] = target: T35, PTH2 (Homo sapiens, UniProt P49190); assay: FLIPR functional screen; assay type: cell-based; conditions: antagonist mode
T35 construct: Millipore

[36] = target: T36, NK2 (Homo sapiens, UniProt P21452); assay: FLIPR functional screen; assay type: cell-based; conditions: antagonist mode
T36 construct: Millipore

[37] = target: T37, CYSLT1 (Homo sapiens, UniProt Q9Y271); assay: FLIPR functional screen; assay type: cell-based; conditions: antagonist mode
T37 construct: Millipore
T37 sequence (Q9Y271 whole entry, species assumed): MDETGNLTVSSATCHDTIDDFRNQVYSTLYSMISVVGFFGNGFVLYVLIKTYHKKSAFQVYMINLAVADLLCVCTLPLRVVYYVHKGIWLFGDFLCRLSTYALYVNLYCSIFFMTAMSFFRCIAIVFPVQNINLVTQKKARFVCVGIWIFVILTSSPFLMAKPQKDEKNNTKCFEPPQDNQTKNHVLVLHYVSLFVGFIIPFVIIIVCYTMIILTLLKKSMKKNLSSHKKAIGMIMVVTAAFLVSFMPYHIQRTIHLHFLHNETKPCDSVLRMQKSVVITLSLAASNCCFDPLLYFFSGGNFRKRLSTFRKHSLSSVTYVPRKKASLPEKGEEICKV

[38] = target: T38, GNRHR (Homo sapiens, UniProt P30968); assay: FLIPR functional screen; assay type: cell-based; conditions: antagonist mode
T38 construct: Millipore

[39] = target: T39, GPR40 (Homo sapiens, UniProt O14842); assay: FLIPR functional screen; assay type: cell-based; conditions: antagonist mode
T39 construct: Millipore

[40] = target: T40, BLT1 (Homo sapiens, UniProt Q15722); assay: FLIPR functional screen; assay type: cell-based; conditions: antagonist mode
T40 construct: Millipore

[41] = target: T41, CGRP1 (Homo sapiens, UniProt O60894+Q16602); assay: FLIPR functional screen; assay type: cell-based; conditions: antagonist mode
T41 construct: Millipore

T1 sequence (P21731 whole entry): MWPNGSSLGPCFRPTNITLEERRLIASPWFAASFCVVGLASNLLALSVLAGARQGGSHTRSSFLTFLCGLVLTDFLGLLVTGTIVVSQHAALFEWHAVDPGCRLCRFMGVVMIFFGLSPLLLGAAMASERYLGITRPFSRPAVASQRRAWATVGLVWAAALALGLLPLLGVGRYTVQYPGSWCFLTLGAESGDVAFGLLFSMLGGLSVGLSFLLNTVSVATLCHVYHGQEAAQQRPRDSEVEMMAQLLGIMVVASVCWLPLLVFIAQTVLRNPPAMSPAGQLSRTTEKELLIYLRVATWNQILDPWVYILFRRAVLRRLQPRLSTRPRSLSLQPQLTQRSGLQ

`CCN1C(=O)N2Cc3cc(OC)cc(OC)c3[C@@H](C)C=C2C12CCN(Cc1cccn1C)CC2` [ER-819924-01] gave an inhibition at 1 µM [1] of 1.8%, an inhibition at 1 µM [2] of 8.9% and an inhibition at 1 µM [3] of -2.3%. The inhibition at 1 µM [4] was 8.8%, the inhibition at 1 µM [5] was 7.1% and the “% INHIBITION” value ([6]; CONC. 0.1 μm) was 0%. For the same compound, the “% INHIBITION” value ([6]; CONC. 1 μm) was 13%, the inhibition at 1 µM [7] was 4.2% and the inhibition at 1 µM [8] was 1.7%. For the same compound, the inhibition at 1 µM [9] was 3.9%, the inhibition at 1 µM [10] was 14% and the inhibition at 1 µM [11] was -38.6%. It also gave an inhibition at 1 µM [12] of -2.8%, an inhibition at 1 µM [13] of -0.9% and an inhibition at 1 µM [14] of -0.8%. It also gave an inhibition at 1 µM [15] of 7.2%, an inhibition at 1 µM [16] of 1.8% and an inhibition at 1 µM [17] of 4.6%. For the same compound, the inhibition at 1 µM [18] was 2.9%, the inhibition at 1 µM [19] was 3.7% and the inhibition at 1 µM [20] was 9.6%. It also gave an inhibition at 1 µM [21] of -4.9%, an inhibition at 1 µM [22] of 6.2% and an inhibition at 1 µM [23] of -5.8%. It also gave an inhibition at 1 µM [24] of 8%, an inhibition at 1 µM [25] of -7.3% and an inhibition at 1 µM [26] of 11.4%. The inhibition at 1 µM [27] was -1%, the inhibition at 1 µM [28] was 10.6% and the inhibition at 1 µM [29] was 8.8%. It also gave an inhibition at 1 µM [30] of 2.9%, an inhibition at 1 µM [31] of 11.3% and an inhibition at 1 µM [32] of -1.5%. It also gave an inhibition at 1 µM [33] of 0.5%, an inhibition at 1 µM [34] of 0.1% and an inhibition at 1 µM [35] of -6.2%. The inhibition at 1 µM [36] was 2.1%, the inhibition at 1 µM [37] was -1.6% and the inhibition at 1 µM [38] was 35.8%. It also gave an inhibition at 1 µM [39] of -4.6%, an inhibition at 1 µM [40] of 2.2% and an inhibition at 1 µM [41] of -5.6%.
